Data reported in patent US20230131966A1, “FUNGICIDAL AMIDES” (FMC Corporation, priority 2020, published 2023).

Legend:
Assay type in all cases: in vivo
Plasmopara viticola = assay: Test D: grape downy mildew control on grape seedlings; details: 100 = 100% disease control, 0 = no control
Phakopsora pachyrhizi = assay: Test A: Asian soybean rust control on soybean seedlings; details: soybean seedlings, 100 = 100% disease control, 0 = no control
[1] = system: Puccinia recondita f. sp. tritici; assay: Test B: wheat leaf rust control on wheat seedlings; details: wheat seedlings, 100 = 100% disease control, 0 = no control
Botrytis cinerea = assay: Test E: tomato Botrytis control on tomato seedlings; details: 100 = 100% disease control, 0 = no control
Zymoseptoria tritici = assay: Test C: wheat leaf blotch control on wheat seedlings; details: wheat seedlings, 100 = 100% disease control, 0 = no control
[2] = system: Erysiphe graminis f. sp. tritici; assay: Test G: wheat powdery mildew control on wheat seedlings; details: 100 = 100% disease control, 0 = no control
Phytophthora infestans = assay: whole plant or invertebrate; details: tomato seedlings, 100 = 100% disease control, 0 = no control

Row | Compound | Test D disease control rating (Plasmopara viticola; 250 ppm) [%] | Test A disease control rating (Phakopsora pachyrhizi; 250 ppm) [%] | Test B disease control rating ([1]; 250 ppm) [%] | Test E disease control rating (Botrytis cinerea; 250 ppm) [%] | Test C disease control rating (Zymoseptoria tritici; 250 ppm) [%] | Test G disease control rating ([2]; 250 ppm) [%] | Test F disease control rating (Phytophthora infestans; 250 ppm) [%] | Test D disease control rating (Plasmopara viticola; 50 ppm) [%] | Test A disease control rating (Phakopsora pachyrhizi; 50 ppm) [%] | Test B disease control rating ([1]; 50 ppm) [%] | Test E disease control rating (Botrytis cinerea; 50 ppm) [%] | Test C disease control rating (Zymoseptoria tritici; 50 ppm) [%] | Test G disease control rating ([2]; 50 ppm) [%] | Test F disease control rating (Phytophthora infestans; 50 ppm) [%]
1 | COc1ccnc(C(=O)NC(C)C(=O)OC(C)c2ccc(F)cc2Oc2ccccc2)c1OC(C)=O (mixture of isomers) [Compound 85] | 62 | 63 | 79 | 0 | 67 | 0 | 0 |  |  |  |  |  |  | 
2 | COc1ccnc(C(=O)NC(C)C(=O)OC(C)c2ccc(-n3ccc(C(F)(F)F)n3)cc2-n2ccc(C(F)(F)F)n2)c1O (mixture of isomers) [Compound 89] | 16 | 0 | 0 | 0 | 0 | 0 | 0 |  |  |  |  |  |  | 
3 | COc1ccnc(C(=O)NC(C)C(=O)OC(C)c2ccc(-n3ccc(C(F)(F)F)n3)cc2-n2ccc(C(F)(F)F)n2)c1OC(C)=O (mixture of isomers) [Compound 90] | 17 | 0 | 55 | 0 | 0 | 0 | 0 |  |  |  |  |  |  | 
4 | COc1cccc(C(=O)NC(C)C(=O)OC(C)C2CCCCC2)c1O (mixture of isomers) [Compound 91] | 96 | 0 | 0 | 0 | 2 | 0 | 0 |  |  |  |  |  |  | 
5 | COc1cccc(C(=O)NC(C)C(=O)OC(C)C2CCCCC2)c1OC(C)=O (mixture of isomers) [Compound 92] | 60 | 0 | 0 | 0 | 0 | 0 | 0 |  |  |  |  |  |  | 
6 | CC(NC(=O)c1cccc(NC=O)c1O)C(=O)OC(C)c1ccc(C2CCCCC2)cc1 (mixture of isomers) [Compound 97] | 100 | 98 | 92 | 0 | 99 | 0 | 99 |  |  |  |  |  |  | 
7 | COc1ccnc(C(=O)NC(C)C(=O)N(C)C(C)c2ccc(C3CCCCC3)cc2)c1O (mixture of isomers) [Compound 98] | 71 | 89 | 0 | 0 | 59 | 0 | 0 |  |  |  |  |  |  | 
8 | COc1ccnc(C(=O)NC(C)C(=O)N(C)C(C)c2ccc(C3CCCCC3)cc2)c1OC(C)=O (mixture of isomers) [Compound 99] | 39 | 98 | 68 | 0 | 88 | 0 | 0 |  |  |  |  |  |  | 
9 | COc1ccnc(C(=O)NC(C)C(=O)OC(C)C2CCCCCC2)c1OC(C)=O (mixture of isomers) [Compound 101] |  |  |  |  |  |  |  | 86 | 100 | 68 | 0 | 66 | 0 | 0
10 | COc1ccnc(C(=O)NC(C)C(=O)OC(C)C2CCCCCC2)c1O (mixture of isomers) [Compound 102] |  |  |  |  |  |  |  | 72 | 100 | 55 | 0 | 0 | 0 | 0
11 | COc1ccnc(C(=O)NC(C)C(=O)OC(C)C2CCC(c3ccccc3)CC2)c1O (mixture of isomers) [Compound 103] | 74 | 100 | 100 | 0 | 99 | 0 | 0 |  |  |  |  |  |  | 
12 | COc1ccnc(C(=O)NC(C)C(=O)OC(C)c2cc3ccccc3o2)c1O (mixture of isomers) [Compound 125] | 67 | 99 | 90 | 0 | 90 | 0 | 0 |  |  |  |  |  |  | 
13 | COc1ccnc(C(=O)NC(C)C(=O)OC(C)C2CCCCC2)c1O (mixture of isomers) [Compound 126] | 3 | 0 | 0 | 0 | 10 | 0 | 0 |  |  |  |  |  |  | 
14 | C=CCOc1c(OC)ccnc1C(=O)NC(C)C(=O)OC(C)c1ccc(C2CCCCC2)cc1 (mixture of isomers) [Compound 153] | 70 | 100 | 95 | 0 | 24 | 0 | 26 |  |  |  |  |  |  | 
15 | COc1ccnc(C(=O)NC(C)C(=O)OC(C)c2ccc(C3CCCCC3)cc2)c1OC(=O)C(C)C (mixture of isomers) [Compound 154] | 48 | 100 | 98 | 0 | 85 | 0 | 0 |  |  |  |  |  |  | 
16 | COc1ccc(COc2c(OC)ccnc2C(=O)NC(C)C(=O)OC(C)c2ccc(C3CCCCC3)cc2)cc1 (mixture of isomers) [Compound 155] | 5 | 100 | 99 | 0 | 98 | 0 | 0 |  |  |  |  |  |  | 
17 | COc1ccnc(C(=O)NC(C)C(=O)OC(C)c2ccc(C3CCCCC3)cc2)c1OS(C)(=O)=O (mixture of isomers) [Compound 156] | 7 | 89 | 68 | 0 | 13 | 0 | 17 |  |  |  |  |  |  | 
18 | COc1ccnc(C(=O)NC(C)C(=O)OC(C)c2cccc(C3CC3)c2)c1OC(C)=O (mixture of isomers) [Compound 157] | 63 | 100 | 100 | 0 | 86 | 0 | 0 |  |  |  |  |  |  | 
19 | COc1ccnc(C(=O)NC(C)C(=O)OC(C)c2cccc(C3CC3)c2)c1O (mixture of isomers) [Compound 158] | 94 | 100 | 100 | 0 | 73 | 0 | 0 |  |  |  |  |  |  | 
